This is an account of results in ChEMBL document CHEMBL1201862, “PubChem BioAssay data set” (2004).

Holding throughout (assay): growth of human tumour cells (NCI), 48 h
Experiment [1] deals with SF-268.
Experiment [2] relates to RXF 393.
Experiment [3] relates to NCI-H23.
The subject of experiment [4] is SK-MEL-5.
The test system of experiment [5] is CCRF-CEM.
Experiment [6] has as its system NCI-H460.
Experiment [7] deals with OVCAR-5.
Experiment [8] concerns HL-60.
Experiment [9] deals with HCT-116.
The subject of experiment [10] is DU-145.
The test system of experiment [11] is OVCAR-8.
In experiment [12] the test system is MDA-MB-435.
The subject of experiment [13] is OVCAR-4.
Experiment [14] has as its system SW-620.
Experiment [15] concerns EKVX.
The subject of experiment [16] is KM12.
Experiment [17] deals with CAKI-1.
Experiment [18] concerns SK-MEL-28.
The test system of experiment [19] is RPMI-8226.
Experiment [20] has as its system K562.

Several values for one entry are separate records, joined by “and”; a condition that tells them apart may be missing. Equal entries are not always repeated.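 Growth conditions: 96-well plates. Treatment: test compound, 48 hours, 5 concentrations. Analysis: linear interpolation between bracketing concentrations; unreached endpoints set to highest concentration. GI50 = concentration required for 50% inhibition of growth.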 Activity calls are given as the source filed them. Cut-off read from the data, not from the text of the source: active = GI50 up to about 1.1 µM and inactive = higher.

As for `O=C1CCCSC(=O)N1Cc1ccccc1`, the GI50 in experiment [1], in experiment [2], in experiment [3], in experiment [4], in [5] and in experiment [6] was > 100 µM (inactive) throughout. The GI50 in experiment [7], in [8], in [9], in [10], in experiment [11] and in experiment [12] was > 100 µM (inactive) each time. For the same molecule, the GI50 in experiment [13], in experiment [14], in [15], in experiment [16], in experiment [17] and in [18] was > 100 µM (inactive) throughout.

Regarding `N#Cc1ccsc1Nc1ccccc1[N+](=O)[O-]`, the GI50 was 47 µM (inactive) in [1]; 86.9 µM (inactive) in experiment [2]; > 100 µM (inactive) in experiment [3]; > 100 µM (inactive) in experiment [5]; > 100 µM (inactive) in [6]; > 100 µM (inactive) in [7]. The GI50 in experiment [9], in experiment [19], in experiment [10], in experiment [11], in [12] and in experiment [13] was > 100 µM (inactive) each time. Moreover, the GI50 in [20] is > 100 µM (inactive); in experiment [14] it was > 100 µM (inactive); in [15] it was 36.6 µM (inactive); in experiment [16] it was > 100 µM (inactive); in [17], > 100 µM (inactive); in experiment [18] it was > 100 µM (inactive).

For the molecule `COc1ccc2c(c1)CCCN1Cc3cc(OC)c(OC)cc3CC21` (centres undefined), the GI50 in experiment [1] is 50.9 µM (inactive); in [2], 25.6 µM (inactive); in [3], > 100 µM (inactive); in experiment [4], 37.8 µM (inactive); in [5], 99.8 µM (inactive); in experiment [6], 50.2 µM (inactive). The GI50 was > 100 µM (inactive) in experiment [7]; 18.2 µM (inactive) in experiment [9]; > 100 µM (inactive) in experiment [10]; > 100 µM (inactive) in experiment [11]; > 100 µM (inactive) in experiment [12]; 43.7 µM (inactive) in experiment [13]. Further, the GI50 was 80.7 µM (inactive) in [20]; > 100 µM (inactive) in experiment [14]; > 100 µM (inactive) in experiment [15]; > 100 µM (inactive) in experiment [16]; > 100 µM (inactive) in [17]; > 100 µM (inactive) in experiment [18].

With `COc1ccc(/C=C2/SC(c3c(O)ccc4ccccc34)N(NC(=O)CCCCCCCCC(=O)NN3C(=O)/C(=C\c4ccc(OC)c(OC)c4)SC3c3c(O)ccc4ccccc34)C2=O)cc1OC` (centres undefined), the GI50 is 0.418 µM (active) in [1]; 3.56 µM (inactive) in [2]; 2.22 µM (inactive) in [3]; 0.318 µM (active) in experiment [4]; 0.222 µM (active) in experiment [5]; 0.649 µM (active) in [6]. In addition, the GI50 in experiment [7] is 21.5 µM (inactive); in experiment [9], 0.345 µM (active); in [19], 0.995 µM (active); in experiment [10], 1.61 µM (inactive); in experiment [11], 0.553 µM (active); in experiment [12], 11.3 µM (inactive). In addition, the GI50 was 1.64 µM (inactive) in [13]; 1.2 µM (inactive) in [20]; 1.53 µM (inactive) in [14]; 2.12 µM (inactive) in experiment [15]; 5.16 µM (inactive) in [16]; 1.22 µM (inactive) in experiment [17]. The GI50 in experiment [18] is 2.98 µM (inactive).

As for `C=C(Br)C(C)(Cl)CCC(Br)C(C)(C)Cl` (centres undefined), the GI50 in experiment [1] was 63.8 µM (inactive); in experiment [2], 24.7 µM (inactive); in experiment [3], 41.9 µM (inactive); in experiment [4] it was 34.2 µM (inactive); in experiment [5], 20.6 µM (inactive); in [6], > 100 µM (inactive). Besides, the GI50 in experiment [7] was 56.4 µM (inactive); in experiment [8], 20.3 µM (inactive); in experiment [9] it was 34.9 µM (inactive); in experiment [10], > 100 µM (inactive); in [11], 64.1 µM (inactive); in [12], 28.4 µM (inactive). The GI50 in experiment [13] was 47.8 µM (inactive); in [20] it was 46.3 µM (inactive); in experiment [14], 36.1 µM (inactive); in experiment [15] it was > 100 µM (inactive); in experiment [16], 34.2 µM (inactive); in experiment [17], > 100 µM (inactive). Besides, in experiment [18], the GI50 was > 100 µM (inactive).

In the case of `COc1cc(-c2cc(-c3ccccc3)nc(-c3c(OC)ccc4c(C)cc(=O)oc34)c2)cc(OC)c1OC`, the GI50 in experiment [1], in experiment [2], in [3], in experiment [4], in [5] and in experiment [6] was > 100 µM (inactive) in each case. Besides, the GI50 was 13.6 µM (inactive) in [8]; > 100 µM (inactive) in [9]; > 100 µM (inactive) in experiment [10]; > 100 µM (inactive) in [11]; > 100 µM (inactive) in experiment [12]; > 100 µM (inactive) in experiment [13]. Moreover, the GI50 in experiment [20], in experiment [14], in experiment [15], in [16] and in [17] was > 100 µM (inactive) each time.

Regarding `O=C(O)c1cc(Sc2ccc([N+](=O)[O-])c(C(=O)O)c2)ccc1[N+](=O)[O-]`, the GI50 in [1], in experiment [2], in [4], in experiment [5], in experiment [6] and in [7] was > 100 µM (inactive) throughout. The GI50 in experiment [8], in experiment [9], in experiment [19], in experiment [10], in [11] and in experiment [12] was > 100 µM (inactive) in each case. Moreover, the GI50 in experiment [13], in [20], in experiment [14], in experiment [15], in experiment [16] and in experiment [18] was > 100 µM (inactive) in each case.

In the case of `CCOC(=O)c1csc(NC(=O)C(C)N2CCCC2)n1` (centres undefined), the GI50 in [2], in [3], in experiment [4], in experiment [5], in [6] and in [7] was > 100 µM (inactive) in each case. The GI50 in experiment [19] was 19.3 µM (inactive); in experiment [10], > 100 µM (inactive); in [11], > 100 µM (inactive); in experiment [12], > 100 µM (inactive); in experiment [13], > 100 µM (inactive); in experiment [20], > 100 µM (inactive). The GI50 in [14], in [16], in experiment [17] and in experiment [18] was > 100 µM (inactive) each time.

`OC(CBr)C(O)C(O)C(O)CBr` (centres undefined): the GI50 in experiment [2] is > 100 µM (inactive) and > 88.9 µM (inactive); in experiment [5], 14.3 µM (inactive) and > 21.6 µM (inactive); in experiment [6], 8.3 µM (inactive) and 10.7 µM (inactive); in experiment [7], > 57 µM (inactive); in [8], 8.73 µM (inactive) and 13.3 µM (inactive); in experiment [19] it was > 65.8 µM (inactive) and > 38.5 µM (inactive). The GI50 in [10] was 12.7 µM (inactive); in [11] it was > 100 µM (inactive) and 59.4 µM (inactive); in [12] it was > 61.2 µM (inactive); in experiment [13], > 100 µM (inactive) and > 81.5 µM (inactive); in experiment [20] it was > 87.9 µM (inactive); in experiment [14] it was > 87.7 µM (inactive). Further, the GI50 in [15] is > 75.7 µM (inactive); in experiment [16], > 100 µM (inactive) and > 60 µM (inactive); in [18], > 92.7 µM (inactive).

For the molecule `Cc1nc(C)c(C(=O)NNC(=O)C[N+](C)(C)C)cc1C(=O)NNC(=O)C[N+](C)(C)C`, the GI50 in [1], in experiment [2], in experiment [3], in experiment [4], in experiment [6] and in experiment [7] was > 100 µM (inactive) each time. Also, the GI50 in experiment [8] is 62.1 µM (inactive); in [9], > 100 µM (inactive); in [10], > 100 µM (inactive); in experiment [11], > 100 µM (inactive); in experiment [12] it was > 100 µM (inactive); in experiment [13], > 100 µM (inactive). In addition, the GI50 in experiment [14], in [15], in experiment [16], in experiment [17] and in experiment [18] was > 100 µM (inactive) each time.

With `CCOC(=O)c1c(N2CCCC2)[nH]c(=O)c(C(c2cccs2)c2c(O)c(C(=O)OCC)c(N3CCCC3)[nH]c2=O)c1O`, the GI50 in [1] was > 100 µM (inactive); in [2] it was > 100 µM (inactive); in [3] it was > 100 µM (inactive); in experiment [4], > 100 µM (inactive); in experiment [5], 78.2 µM (inactive); in experiment [6], > 100 µM (inactive). The GI50 is > 100 µM (inactive) in experiment [7]; > 100 µM (inactive) in experiment [9]; 54.6 µM (inactive) in experiment [19]; > 100 µM (inactive) in experiment [10]; > 100 µM (inactive) in experiment [11]; > 100 µM (inactive) in experiment [12]. The GI50 in experiment [13], in experiment [20], in experiment [14], in experiment [15], in experiment [16] and in [17] was > 100 µM (inactive) throughout. The GI50 in experiment [18] is > 100 µM (inactive).
